# Like-named read-outs stand apart in the source and are kept apart here.
# Tests used:
# Format in all cases: cell-based
# ncih1436 = assay: In vitro ADC activity with combination partners, CellTiter-Glo 5 days, ncih1436 (Example 13); details: single agent
# Experimental: (§1) Antibody drug conjugates (ADCs) targeting IgG, B7H3, CD56, DLK1, DLL3, EpCAM, and SEZ6 were tested against cancer cell lines obtained from ATCC (American Type Culture Collection) or from other commercial cell line vendors (cor1279, ncih1436, ncih146, ncih211, ncih524). The cells were cultured in media that is optimal for their growth at 5% CO2, 37° C. in a tissue culture incubator. Prior to seeding for the proliferation assay, the cells were split at least 2 days before the assay to ensure optimal growth density. On the day of seeding, cells were lifted off tissue culture flasks using 0.25% trypsin. Cell viability and cell density were determined using a cell counter (Vi-Cell XR Cell Viability Analyzer, Beckman Coulter). Cells with higher than 85% viability were seeded in white clear bottom 384-well plates (Greiner cat #781098) at a density of 1000 cells per well in 50 μL of standard growth media. Plates were incubated at 37° C. overnight in a tissue culture incubator.
# (§2) The ADCs were prepared in standard phosphate buffered solution to desired concentrations. A series of 10 dilutions were made for each ADC. The prepared drug treatments were then added to the cells resulting in final concentrations of 300 nM to 0.015 nM. Combination partners (Venetoclax and Topotecan) were added at fixed concentrations. Acoustic transfer devices (Echo525, Echo550, Beckman Coulter) were used to add the ADCs or combination partners to the cells. Each treatment was tested in triplicate assay plates. Plates were incubated at 37° C. overnight or for 5 days in a tissue culture incubator. The ability of the ADCs to inhibit cell proliferation and survival was assessed using the Promega CellTiter-Glo® proliferation assay. Plates were incubated at room temperature for 20 minutes to stabilize luminescent signals prior to reading using a multimode plate reader (Pherastar, BMG). Luminescent counts of untreated cells were taken the day after seeding (Day 0 readings), and after 5 days of treatment (Day 5 readings). The Day 5 readings of the untreated cells were compared to the Day 0 readings. Assays with at least one cell doubling during the incubation period were considered valid. To evaluate the effect of the drug treatments, luminescent counts from wells containing untreated cells (100% viability) were used to normalize treated samples. The concentrations of treatment required to inhibit 50% of cell growth or survival ([…]) were calculated using a four parameter logistic regression equation.
# ncih211 = assay: In vitro ADC activity with combination partners, CellTiter-Glo 5 days, ncih211 (Example 13); details: single agent
# Experimental: as §1, §2
# ALL-SIL cells = assay: CellTiterGlo (CTG) cell viability, 72 h, ALL-SIL (Example 8)
# Summary of the method: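 In RPMI with 20% FBS, ALL-SIL cells were exposed for 72 h to serially diluted payloads or ADCs (9 concentrations, triplicate) at 37 °C/5% CO2. Viability was measured as cellular ATP by CellTiterGlo luminescence, with IC50 from four-parameter fit.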
# ALL-SILL (T-ALL) = assay: CellTiter-Glo viability 72 h, single agent or 1/1 combination, ALL-SIL (Example 9); details: single agent or 1/1 combination as labelled
# Summary of the method: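 ALL-SIL cells were incubated with payloads or ADCs, alone or in 1/1 combination, for 3 days at 37° C/5% CO2. Viability was read as cellular ATP by CellTiter-Glo luminescence, in triplicate. IC50s came from four-parameter curve fitting.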
# SUDHL8 (DLBCL) = assay: CellTiter-Glo viability 72 h, single agent or 1/1 combination, SUDHL8 (Example 9); details: Homo sapiens, SU-DHL-8, single agent or 1/1 combination as labelled
# Experimental: Cell lines were cultured in the media described above at 37° C. in a humidified atmosphere containing 5% CO2. Cells were seeded in 96 well clear bottom plates (96 well clear-bottom, white, Corning reference 3903) and exposed to the payloads or ADCs at single agents or in 1/1 combinations with vincristine, ABT-199 or compound A2 for 72 h (serially diluted; 9 concentrations each, triplicates). Effects of payloads or ADCs on cell viability were assessed after 3 days of incubation at 37° C./5% CO2 by quantification of cellular ATP levels using CellTiter-Glo reagent (Promega Ref: G7571) at 75 μL reagent/well. All the conditions were tested in triplicates. Luminescence was quantified on a multipurpose plate reader. IC50s were calculated using standard four-parametric curve fitting. […] Each experiment was performed at least twice, with results being reproducible.
# corl279 = assay: In vitro ADC activity with combination partners (Venetoclax, Topotecan), CellTiter-Glo 5 days, corl279 (Example 13); details: single agent
# Experimental: as §1, §2
# DND-41 cells = assay: CellTiterGlo (CTG) cell viability, 72 h, DND-41 (Example 8)
# Summary of the method: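 DND-41 cells in RPMI with 10% heat-inactivated FBS exposed to payloads or ADCs for 3 days at 37° C/5% CO2, in triplicate. Viability measured as cellular ATP by CellTiterGlo luminescence; IC50 from four-parameter fit.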
# ncih146 = assay: In vitro ADC activity with combination partners, CellTiter-Glo 5 days, ncih146 (Example 13); details: single agent
# Experimental: as §1, §2
compound,measurement,setting,value
"Cc1c(Nc2nc3ccccc3s2)nnc2c1CCCN2c1ccc(-c2cnn(C[C@]34C[C@]5(C)C[C@](C)(C3)C[C@@](OCCN3CCCC3)(C5)C4)c2C)c(C(=O)O)n1 [P21, 6-[3-(1,3-benzothiazol-2-ylamino)-4-methyl-6,7-dihydro-5H-pyrido[2,3-c]pyridazin-8-yl]-3-[1-[[3,5-dimethyl-7-(2-pyrrolidin-1-ylethoxy)-1-adamantyl]methyl]-5-methyl-pyrazol-4-yl]pyridine-2-carboxylic acid]",GI50,"ncih1436; Homo sapiens, NCI-H1436, 120 h",0.000508 µM
same,GI Amax ncih1436,ncih1436,−94.5
same,GI50,"ncih211; Homo sapiens, NCI-H211, 120 h",0.000508 µM
same,GI Amax ncih211,ncih211,−97.26
same,IC50,"ALL-SIL cells; experiment n1, read-out: ALLSIL CTG 72 h IC50 nM n1",0.02 nM
same,IC50,"ALL-SIL cells; experiment n2, read-out: ALLSIL CTG 72 h IC50 nM n2",0.05 nM
same,IC50,"ALL-SIL cells; mean of n1 and n2, read-out: ALLSIL CTG 72 h IC50 nM Mean of n1 and n2",0.04 nM
same,IC50,"ALL-SILL (T-ALL); mean, read-out: ALL-SILL (T-ALL) IC50 mean",0.63 nM
same,IC50,"ALL-SILL (T-ALL); n1, read-out: ALL-SILL (T-ALL) IC50 n1",0.4 nM
same,IC50,"ALL-SILL (T-ALL); n2, read-out: ALL-SILL (T-ALL) IC50 n2",0.86 nM
same,IC50,"SUDHL8 (DLBCL); mean, read-out: SUDHL8 (DLBCL) IC50 mean",0.24 nM
same,IC50,"SUDHL8 (DLBCL); n1, read-out: SUDHL8 (DLBCL) IC50 n1",0.34 nM
same,IC50,"SUDHL8 (DLBCL); n2, read-out: SUDHL8 (DLBCL) IC50 n2",0.14 nM
same,GI50,"corl279; Homo sapiens, COR-L279, 120 h",0.00242 µM
same,GI Amax corl279,corl279,−88.27
same,IC50,"DND-41 cells; DND41, experiment n1, read-out: DND41 CTG 72 h IC50 nM n1",0.31 nM
same,IC50,"DND-41 cells; DND41, experiment n2, read-out: DND41 CTG 72 h IC50 nM n2",0.2 nM
same,IC50,"DND-41 cells; DND41, mean of n1 and n2, read-out: DND41 CTG 72 h IC50 nM Mean of n1 and n2",0.26 nM
same,GI50,"ncih146; Homo sapiens, NCI-H146, 120 h",0.000508 µM
same,GI Amax ncih146,ncih146,−98.38
